Experimental data: ChEMBL document CHEMBL1148920, “Ingenamine G and cyclostellettamines G-I, K, and L from the new Brazilian species of marine sponge Pachychalina sp” (2004)

Assays:
Assay type in all cases: functional
B16 = test: Cytotoxicity against mouse B16 cells
Escherichia coli = test: Antibacterial activity against Escherichia coli ATCC 25922
[1] = system: Mycobacterium tuberculosis; test: Antimycobacterial activity against Mycobacterium tuberculosis H37Rv
HCT-8 = test: Cytotoxicity against human HCT8 cells
MCF7 = test: Cytotoxicity against human MCF7 cells
Staphylococcus aureus = test: Antibacterial activity against Staphylococcus aureus ATCC 25923

Compound OC1/C=C\C=C/CCN2CC3C=C4CCCCCCCCCC/C=C\CCN5CCC3C(C1)(C5)C42 (stereo unspecified) [INGENAMINE G] has an Activity (B16) of 9.8 µg/mL, an Activity (Escherichia coli) of 75 µg/mL and an Activity [1] of 8 µg/mL. It also gave an Activity (HCT-8) of 8.6 µg/mL, an Activity (MCF7) of 11.3 µg/mL and an Activity (Staphylococcus aureus) of 105 µg/mL.
